The results in this text go back to US20240091202A1, “COMPOSITIONS FOR THE TREATMENT OF EBV ASSOCIATED DISEASES OR CONDITIONS” (Universität Basel, priority 2021, published 2024).

Assay [1] has as its system primary B cells infected with EBV B95-8. Kind of assay: EBV-driven B cell proliferation, CellTrace Violet flow cytometry assay. Type of assay: cell-based, human. The note with it: different BMS-986205 concentrations added at 0 hpi; analyzed 8 days post infection; vs vehicle. As to the method:
Proliferation was analyzed in the presence of vehicle or different BMS-986205 concentrations added on day 0 post EBV-infection of primary B cells (n=2). Uninfected and h.i. EBV infected cells served as internal controls. Proliferation was analyzed 8 days post infection by flow cytometry using a cell trace violet based assay.
Bulk B cells were stained with CellTraceTM Violet (Cell Proliferation Kit, ThermoFisher) then infected with EBV B95-8 as described above. Proliferation was assessed by determining the number of proliferated cells (cells that had proliferated at least once after infection) with IDO1 inhibitor/number of proliferated cells with vehicle control.
(In general: A flow cytometer gives signals particle by particle.)

The test system is the same in assay [2]. Kind of assay: EBV-driven B cell transformation efficiency assay (LCL outgrowth). Format: cell-based, human. The note with it: for restoration of EBV's capacity to latently infect/transform B cells in the presence of BMS-986205: 10 μM BMS-986205 plus 50 μM L-KYNU or 500 μM NaMN, added day 0; for rescue of the capacity of EBV to transform IDO1-blocked B cells: summary statement, added together with IDO1 inhibitor. As to the method: Transformation efficiency was analyzed 5 weeks post infection and plotted against the added multiplicity of infection (MOI).
Data are represented as median value of indicated individual data points (n=4 independent experiments) relative to Ctrl siRNA (set at one), and compared using two-tailed Student's t-test.
An IDO1 inhibitor as disclosed herein can inhibit B cell transformation. Preferably, an IDO1 inhibitor as disclosed herein can inhibit EBV-induced B cell transformation. Transformation can be analysed by methods known in the art, for example using a transformation efficiency assay. In this assay B cells are seeded into a cell culture plate and infected with increasing virus concentrations. An IDO1 inhibitor can be added immediately after infection. After an incubation period of 5 weeks, the number of wells positive for LCL outgrowth are counted. Alternatively, any other suitable assay can be used. Suitably, an IDO1 inhibitor as disclosed herein can inhibit B cell transformation at a concentration of about 200 μM or less, about 150 μM or less, about 100 μM or less, about 50 μM or less, about 20 μM or less, about 15 μM or less, about 10 μM or less, about 5 μM or less, or about 1 μM or less, preferably about 100 μM or less or about 10 μM or less in the assays described herein. An IDO1 inhibitor as disclosed herein can be any one of the IDO inhibitors as disclosed herein that can inhibit B cell transformation, preferably EBV-induced B cell transformation.
Bulk B cells were seeded at a final concentration of 1×10^6 cells/ml in LCM-10 medium in a 96-well round bottom plate and infected with increasing concentration of EBV B95-8 (MOI 1×10^3-1×10^−4) by spinoculation. […] 5 weeks post-infection the number of wells with morphologic changes of transformation was counted and plotted as percentage of wells positive for LCL outgrowth against virus concentration in MOI.

A further assay relates to IDO1. Nature of the assay: IDO1 inhibition in humanized mouse model of EBV infection: tryptophan and L-kynurenine levels. Format: in vivo, humanized NSG mice. The settings on record: Epacadostat 200 mg/kg i.p.; d -7, day 2 and day 7 pi; vs vehicle (FIG. 10). As to the method:
Data are shown as box and whiskers (median, IQR and range) and compared by two-tailed Student's t-test.
(§1) A humanized mouse model of EBV infection was then used to directly interrogate the role of IDO1 in EBV-driven immune dysregulation and lymphomagenesis. Briefly, NSG mice (Jackson Laboratory, Bar Harbor, ME, USA) were injected with human hematopoietic progenitor cells shortly after birth, and reconstitution with human immune system components was confirmed at 3-4 months of age (data not shown). […]. Efficacy of Epacadostat-mediated IDO1 inhibition was verified by quantifying tryptophan and L-kynurenine plasma levels (FIG. 10). EBV viral loads were assessed in DNA preparations from whole blood at week 2, 3, 4, and 5 pi, and in the spleen at the day of sacrifice, using Taqman real-time PCR with modified primers (5′-[…]-3′ and 5′-[…]-3′) and a fluorogenic probe (5′-FAM […]-TAMRA-3′) to detect the conserved EBV BamHI-W fragment. Samples were analyzed in triplicates and run on a CFX384 Touch Real-time PCR Detection System (Bio-Rad). DNA from whole blood was extracted with the NucliSENS EasyMAG System (Biornerieux) and DNA from splenic tissues was isolated using the DNeasy Blood and Tissue kit (QIAGEN), according to the manufacturer's recommendations.

A further assay deals with EBV. Nature of the assay: EBV viral loads in blood and spleen, humanized mouse model (Taqman real-time PCR). Format: in vivo, humanized NSG mice. The procedure: […]. Data are shown as median values from the indicated individual measurements, compared using two-tailed Student's t-test.
(§2) Median values from the indicated individual measurements are shown, compared using two-tailed Student's t-test.
as §1

The test system of a further assay is CD8+ T cells. Kind of assay: CD8+ T cell expansion, humanized mouse model of EBV infection. Type of assay: in vivo, humanized NSG mice. The settings on record: Epacadostat i.p. As to the method: as §2
Data are shown as medians and two-tailed Student's t-test was used to compare groups.
as §1

For another assay, the system named is EBV-positive tumors. Nature of the assay: EBV-positive tumor burden, humanized mouse model of EBV infection. Type of assay: in vivo, humanized NSG mice. The note with it: Epacadostat i.p. vs vehicle, n=10 each (FIG. 13A-13C); text concludes reduced lymphomagenesis. The procedure:
[…]. A Chi-Square test was used to compare groups.
(lower panels) are shown, stained with hematoxylin and eosin (HE) (left panels) and EBER FISH (right panels).
A Chi-Square test was used to compare groups. […].
as §1

The mark [3] stands for this setting: 5 weeks post infection (FIG. 6A).

In the case of `C[C@@H](C(=O)Nc1ccc(Cl)cc1)C1CCC(c2ccnc3ccc(F)cc23)CC1` (stereo partly shown) [BMS-986205], the “EBV driven B cell proliferation” value in assay [1] is recorded as “inhibited in a dose-dependent manner”. In assay [2] (10 μM BMS-986205 added at 0 hpi, analyzed 5 weeks post infection, vs vehicle), the “EBV driven B cell transformation” value is “efficiently suppressed”.

In the case of `NS(=O)(=O)NCCNc1nonc1C(=NO)Nc1ccc(F)c(Br)c1` [Epacadostat], the “transformation of EBV-infected B cells” value in assay [2] (100 μM Epacadostat added at 0 hpi, 5 weeks post infection (FIG. 6B)) is reported as “efficiently suppressed”. Besides, the “efficacy of IDO1 inhibition by tryptophan and L-kynurenine plasma levels” value with IDO1 was “verified”. Further, the splenic viral loads result in the assay with EBV (Epacadostat i.p., 5 weeks pi, vs vehicle-treated (FIG. 11B)) is “borderline reduced”. The “blood EBV load” value in the assay on EBV (Epacadostat i.p., AUC of viral load 2-5 weeks pi, vs vehicle-treated (FIG. 11A)) is “efficiently reduced”. The “effect on viral loads” value in the assay on EBV (treated throughout the experiment and also treated for only 2 weeks after infection (data not shown)) was “observed”. The “Splenic CD8VCD4^+ T cell ratios” value in the assay on CD8+ T cells (day of sacrifice (FIG. 12C)) is given as “remained unchanged”. In addition, the “expansion of peripheral blood CD8+ T cells” value with CD8+ T cells (week 0 to week 5 pi, vs vehicle (FIG. 12A and 12B)) is “prevented”. Further, the “effect on EBV-driven B cell tumorigenesis (macroscopic and microscopic tumor burden)” value in the assay on EBV-positive tumors is “equally clear”.

For `Nc1ccccc1C(=O)C[C@H](N)C(=O)O` [L-KYNU, L-Kynurenine], the “restoration of EBV's capacity to latently infect/transform B cells in the presence of BMS-986205” value in assay [2] (setting [3]) is “partially restored”. For the same molecule, the “rescue of the capacity of EBV to transform IDO1-blocked B cells” value in assay [2] is “partially and dose-dependently rescued”.

Turning to `O=C(O)c1ccc[n+]([C@@H]2O[C@H](COP(=O)(O)O)[C@@H](O)[C@H]2O)c1` [NaMN], the “restoration of EBV's capacity to latently infect/transform B cells in the presence of BMS-986205” value in assay [2] (setting [3]) is recorded as “fully restored”. For the same molecule, the “transformation efficiency compared to vehicle” value in assay [2] (10 μM BMS-986205 plus 500 μM NaMN, day 0, 5 weeks post infection (FIG. 6A)) is recorded as “slightly increased”. Further, the “rescue of transformation of B cells in the presence of Epacadostat” value in assay [2] (100 μM Epacadostat plus 500 μM NaMN, day 0, 5 weeks post infection (FIG. 6B)) is recorded as “fully rescued”. Further, the “rescue of the capacity of EBV to transform IDO1-blocked B cells” value in assay [2] is listed as “fully rescue”.
